Drawing on PubChem BioAssay (NCI), this text covers GI50 and TGI for seven compounds.

What all share (test): inhibition of tumour cell growth, NCI panel, 48 h
Experiment [1] relates to TK-10 renal.
The subject of experiment [2] is T-47D breast.
Experiment [3] relates to 786-0 renal.
In experiment [4] the test system is A498 renal.
Experiment [5] deals with RPMI-8226 leukemia.
In experiment [6] the test system is NCI-H522 lung.
Experiment [7] concerns MCF7 breast.
The test system of experiment [8] is SK-MEL-5 melanoma.
For experiment [9], the system named is BT-549 breast.
The test system of experiment [10] is NCI-H23 lung.

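Following 48 hours of exposure in 96-well plates, responses at five concentrations were used to interpolate endpoints linearly. Here, GI50 denotes the concentration required for 50% inhibition of growth. Definition used: TGI = concentration required for complete inhibition of growth.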 Where only a bound is given, the exact number is not on record here.

With `COc1cc2c(cc1Nc1nc(Nc3ccsc3C(N)=O)c3cc[nH]c3n1)N(C(=O)CN(C)C)CCC2`, the GI50 was 1.46 µM in [1]; 3.87 µM in experiment [2]; 3.13 µM in [3]; 0.5 µM in experiment [4]; 1.24 µM in experiment [5]; 0.507 µM in experiment [6]. Further, the GI50 was 0.00343 µM in experiment [7], 0.383 µM in experiment [8], 2.38 µM in experiment [9] and 0.343 µM in [10]. Further, the TGI in experiment [1] was 6.27 µM; in experiment [2] it was 9.65 µM; in experiment [3], 6.95 µM; in experiment [4], 4.13 µM; in experiment [5] it was 6.56 µM; in [6] it was 2.19 µM. Moreover, the TGI in experiment [7] was > 25 µM; in experiment [8] it was 3.2 µM; in experiment [9] it was 6.43 µM; in experiment [10], 8.55 µM.
Regarding `COc1ccc(C2CC(c3cccc(Nc4ccnc5cc(Cl)ccc45)c3)=NN2c2ccc(Cl)cc2)cc1` (stereo not drawn), the GI50 was 12.9 µM in experiment [1]; 0.702 µM in experiment [2]; 2.94 µM in experiment [3]; 4.64 µM in experiment [4]; 4.7 µM in experiment [5]; 4.09 µM in experiment [6]. Besides, the GI50 in experiment [7] is 3.45 µM; in [8] it was 3.01 µM; in experiment [9], 2.67 µM; in experiment [10] it was 17.5 µM. In addition, the TGI was > 100 µM in [1]; 33.2 µM in experiment [2]; 44 µM in experiment [3]; 53.9 µM in [4]; 31.9 µM in [5]; 23.2 µM in experiment [6]. Besides, the TGI in experiment [7] was 44.3 µM; in experiment [8], 10.2 µM; in experiment [9], 26.6 µM; in [10], > 100 µM.
For `COc1c(C)cnc(Cn2cnc3c(Cl)nc(N)nc32)c1C`, the GI50 in [1] is 0.0884 µM; in [2], 0.11 µM; in experiment [3], 0.937 µM; in experiment [4], 0.679 µM; in experiment [5], 0.333 µM; in experiment [6] it was 0.261 µM. Further, the GI50 in experiment [7] was 0.0402 µM; in experiment [8] it was 0.557 µM; in experiment [9], 1.43 µM; in experiment [10], 0.262 µM. In addition, the TGI in experiment [1] was > 100 µM; in [2] it was > 100 µM; in [3] it was > 100 µM; in experiment [4], 23.4 µM; in experiment [5], > 100 µM; in experiment [6] it was 12.9 µM. The TGI was > 100 µM in experiment [7], 15.9 µM in experiment [8], > 100 µM in experiment [9] and 19.8 µM in [10].
As to `C#Cc1cccc(NC(=O)Nc2cccc(NC(=O)CCl)c2)c1`, the GI50 in [1] was 38 µM; in [2], 32.1 µM; in experiment [3] it was 25 µM; in [4], 1.22 µM; in experiment [5], 12.5 µM; in experiment [6], 15.2 µM. Besides, the GI50 is 21.7 µM in experiment [7], 15.7 µM in [8], 16.3 µM in experiment [9] and 14 µM in [10]. Further, the TGI was > 82.5 µM in [1]; > 82.5 µM in [2]; > 82.5 µM in experiment [3]; > 82.5 µM in experiment [4]; 48.3 µM in [5]; 48.6 µM in experiment [6]. Also, the TGI in experiment [7] was > 82.5 µM; in experiment [8], 36.2 µM; in experiment [9], > 82.5 µM; in [10], 31.2 µM.
In the case of `C=C1C(=O)O[C@H]2[C@H]1CC/C(Cn1cc(CNC(=O)c3cc4ccccc4[nH]3)nn1)=C\CC[C@@]1(C)O[C@@H]21`, the GI50 in experiment [1] was 4.41 µM; in experiment [2] it was 3.55 µM; in experiment [3], 2.96 µM; in experiment [4], 18.9 µM; in experiment [5] it was 3.37 µM; in experiment [6], 0.921 µM. For the same compound, the GI50 in experiment [7] was 2.94 µM; in experiment [8] it was 8.1 µM; in experiment [9], 4.09 µM; in experiment [10], 14.3 µM. Also, the TGI in [1] was determined as 15.2 µM; in experiment [2], 20.4 µM; in experiment [3], 9.61 µM; in experiment [4], 36 µM; in [5], 9.34 µM; in [6] it was 2.84 µM. Further, the TGI came out at 15.4 µM in experiment [7], 23.4 µM in experiment [8], 16.5 µM in experiment [9] and 34.5 µM in [10].
Take `C=CC(=O)N1CC[C@@H](Oc2nc(Nc3ccc(N4CCC(N5CCN(C)CC5)CC4)cc3)c(C(N)=O)nc2CC)C1`: the GI50 in experiment [1], in [2], in [3], in experiment [4], in experiment [5] and in experiment [6] was > 100 µM in each case. The GI50 in experiment [7], in [8], in experiment [9] and in experiment [10] was > 100 µM throughout. Also, the TGI in experiment [1], in experiment [2], in experiment [3], in experiment [4], in [5] and in experiment [6] was > 100 µM in each case. Further, the TGI in experiment [7], in experiment [8], in [9] and in experiment [10] was > 100 µM in each case.
`Cc1nn(-c2ccccc2)c2ncc3c(c12)C(=O)N(Cc1ccccc1)C3=O`: the GI50 was 4.86 µM in [2]; 1.94 µM in experiment [3]; 3.51 µM in experiment [4]; 3.61 µM in [5]; 19.8 µM in experiment [6]; > 100 µM in experiment [7]. Further, the GI50 in [8] was > 100 µM; in experiment [9] it was 4.23 µM; in experiment [10], 9.64 µM. Moreover, the TGI in [2] was 20.7 µM; in [3] it was 5.12 µM; in experiment [4], 21.8 µM; in [5], 31.8 µM; in [6] it was > 100 µM; in [7], > 100 µM. The TGI is > 100 µM in experiment [8], 38.6 µM in experiment [9] and 66.1 µM in experiment [10].
